# Source: ChEMBL document CHEMBL3853299 (Eur J Med Chem, 2016)
# pIC50: −log10 of the molar value.
# Experiments:
# Prothrombin [1] = biological target: T1, Prothrombin (Homo sapiens, UniProt P00734); experiment: Inhibition of human thrombin pre-incubated for 10 mins before Ac-FVR-AMC substrate addition and measured after 10 mins by fluorescence based assay
# Prothrombin [2] = biological target: T1, Prothrombin; experiment: Inhibition of human thrombin at 1 ug/ml pre-incubated for 10 mins before Ac-FVR-AMC substrate addition and measured after 10 mins by fluorescence based assay
# Rattus norvegicus = organism: Rattus norvegicus; experiment: Anticoagulant activity in rat assessed as inhibition of arteriovenous thrombosis at 0.5 mg/ml after 15 mins relative to control; assay type: functional
smiles,measurement,setting,value
CCn1c(CNc2ccc(C(=N)N)cc2)nc2cc(C(=O)N(CCC(=O)O)c3ccc(F)c(C)c3)ccc21,pIC50,Prothrombin [1],8.20
same,inhibition,Prothrombin [2],> 90%
CCn1c(CNc2ccc(C(=N)N)cc2)nc2cc(C(=O)N(CCC(=O)O)c3cc(C)ccn3)ccc21,pIC50,Prothrombin [1],8.79
same,inhibition,Prothrombin [2],> 90%
CCn1c(CNc2ccc(C(=N)N)cc2)nc2cc(C(=O)N(CCC(=O)O)c3cccc(C)c3)ccc21,pIC50,Prothrombin [1],8.67
same,inhibition,Prothrombin [2],> 90%
CCn1c(CNc2ccc(C(=N)N)cc2)nc2cc(C(=O)N(CCC(=O)O)c3ccc(C)cc3)ccc21,pIC50,Prothrombin [1],8.30
same,inhibition,Prothrombin [2],> 90%
CCn1c(CNc2ccc(C(=N)N)cc2)nc2cc(C(=O)N(CCC(=O)O)c3ccc(C)cc3C)ccc21,pIC50,Prothrombin [1],7.78
same,inhibition,Prothrombin [2],> 90%
CCn1c(CNc2ccc(C(=N)N)cc2)nc2cc(C(=O)N(CCC(=O)O)c3ccccc3C)ccc21,inhibition (INH),Rattus norvegicus,77.93%
same,pIC50,Prothrombin [1],8.51
same,inhibition,Prothrombin [2],> 90%
CCn1c(CNc2ccc(C(=N)N)cc2)nc2cc(C(=O)N(CCC(=O)O)c3cccc(C)c3C)ccc21,pIC50,Prothrombin [1],8.18
same,inhibition,Prothrombin [2],> 90%
CCn1c(CNc2ccc(C(=N)N)cc2)nc2cc(C(=O)N(CCC(=O)O)c3c(C)cccc3C)ccc21,pIC50,Prothrombin [1],8.51
same,inhibition,Prothrombin [2],> 90%
Cn1c(CNc2ccc(C(=N)N)cc2)nc2cc(C(=O)N(CCC(=O)O)c3ccccn3)ccc21 [DABIGATRAN],inhibition (INH),Rattus norvegicus,85.07%
CCn1c(CNc2ccc(C(=N)N)cc2)nc2cc(C(=O)N(CCC(=O)O)c3ccccc3)ccc21,pIC50,Prothrombin [1],8.33
same,inhibition,Prothrombin [2],> 90%
CCn1c(CNc2ccc(C(=N)N)cc2)nc2cc(C(=O)N(CCC(=O)O)c3cccc(C)n3)ccc21,inhibition (INH),Rattus norvegicus,85.35%
same,pIC50,Prothrombin [1],9.02
same,inhibition,Prothrombin [2],> 90%
CCn1c(CNc2ccc(C(=N)N)cc2)nc2cc(C(=O)N(CCC(=O)O)c3ccc(F)cc3F)ccc21,pIC50,Prothrombin [1],8.37
same,inhibition,Prothrombin [2],> 90%
